# Assay results from publication PMC10866072, “Design, synthesis, molecular modelling and biological evaluation of novel 6-amino-5-cyano-2-thiopyrimidine derivatives as potent anticancer agents against leukemia and apoptotic inducers” (Journal of Enzyme Inhibition and Medicinal Chemistry, 2024).
# Experiments:
# SNB-75 = format: cell-based
# HL60 cells = assay: Cell cycle analysis (propidium iodide, flow cytometry); format: cell-based, human; details: HL60, 48 h treatment
# Experimental: (§1) Compound 1c was selected as a potent candidate, its effect on cell cycle phases of HL60 and leukaemia SR cells was investigated using propidium iodide staining and flow cytometric analysis according to the cell cycle kit (Abcam ®, ab139418-)[90]^,[91]^. Briefly, HL60 and leukaemia SR cells were cultured under optimum conditions. Afterwards, cells were treated by compound 1c for 48 h. Then, they were harvested, washed with PBS, and cell fixation was performed using ethanol on ice. Additionally, cells were pelleted at 500 xg for 5 min and supernatant was gently aspirated. Furthermore, fixed cells were washed by phosphate-buffered saline (PBS) and resuspended in 200 µl 1 x propidium iodide + RNAse staining solution and incubated in dark for 30 min. Finally, stained cells were tested by flow cytometer using FACSCalibur (Becton Dickinson Biosciences, CA, USA). Finally, Cell Quest software (Becton Dickinson Biosciences) was used to determine cell cycle distribution.
# leukaemia SR cells = assay: as above; format: cell-based, human; details: 48 h treatment
# Experimental: as §1
# UACC-257 = format: cell-based
# OVCAR-4 = format: cell-based
# CNS Cancer cell lines = assay: NCI-60 five-dose, subpanel
# Text: Furthermore, the average sensitivity of all cell lines to the compound is termed as the full panel mean graph midpoints (MG-MID). The complete panel mean graph midpoints refers to the average sensitivity of all cell lines to the chemical (MG-MID). A measure of a compound’s selectivity for a given cell line is the ratio created by dividing the full panel mean graph midpoints (MG-MID) concentration by the individual subpanel MG-MID concentrations (obtained as the average sensitivity of all the cell lines in a given subpanel to the test compound).
# Assessment of selectivity of a compound depends on the ratio obtained by dividing the full panel MID ^a by their individual subpanel MID ^b (µM) where MID^a is the average sensitivity of all cell lines towards the test agent (µM).
# IGROV1 = format: cell-based
# CCRF-CEM = format: cell-based
# SK-MEL-2 = format: cell-based
# [1] = Homo sapiens, one dose 10^-5 M, 48 h
# [2] = Homo sapiens, five-dose, read-out: LC50 (the source's name)
compound,measurement,setting,value
"N#Cc1c(N)nc(S)nc1-c1ccc(Cl)cc1Cl [Compound 1c, 4-Amino-6–(2,4-dichlorophenyl)-2-mercaptopyrimidine-5-carbonitrile]",GI50,"SNB-75; Homo sapiens, five-dose",4.9 µM
same,LC50,"SNB-75; Homo sapiens, five-dose",79.9 µM
same,% growth at 10 µM,SNB-75; [1],36.5%
same,TGI,SNB-75; five-dose,25.50 µM
same,% cells in G0/G1 (%DIP G1),HL60 cells,57.37%
same,% cells in S phase,HL60 cells,33.07%
same,% cells in G1 (%DIP G1),leukaemia SR cells,55.22%
same,% cells in S phase,leukaemia SR cells,31.89%
same,GI50,"UACC-257; Homo sapiens, five-dose",14.7 µM
same,CC50,UACC-257; [2],67.2 µM
same,percent cell growth at 10 µM,UACC-257; [1],77.7%
same,TGI,UACC-257; five-dose,31.50 µM
same,GI50,"OVCAR-4; Homo sapiens, five-dose",32 µM
same,CC50,OVCAR-4; [2],> 100 µM
same,% growth at 10 µM,OVCAR-4; [1],81.2%
same,TGI,OVCAR-4; five-dose,>100 µM
same,"Selectivity ratio (full panel MID^a / subpanel MID^b, GI50 level)",CNS Cancer cell lines; CNS cancer,1.04
same,GI50,"CNS Cancer cell lines; Homo sapiens, read-out: GI50 Subpanel MID^b",12.4 µM
same,GI50,"IGROV1; Homo sapiens, IGROV-1, five-dose",19.2 µM
same,CC50,"IGROV1; Homo sapiens, IGROV-1, five-dose, read-out: LC50 (the source's name)",87.6 µM
same,activity at 10 µM,"IGROV1; Homo sapiens, IGROV-1, one dose 10^-5 M, 48 h, read-out: % growth",65.7%
same,TGI,IGROV1; five-dose,41.00 µM
same,GI50,"CCRF-CEM; Homo sapiens, five-dose",0.3 µM
same,LC50 (concentration killing 50% of tumour cells),"CCRF-CEM; Homo sapiens, five-dose",> 100 µM
same,% cell growth at 10 µM,CCRF-CEM; [1],7.65%
same,TGI,CCRF-CEM; five-dose,16.10 µM
same,GI50,"SK-MEL-2; Homo sapiens, five-dose",17.5 µM
same,LC50,"SK-MEL-2; Homo sapiens, five-dose",66.8 µM
same,% growth at 10 µM,SK-MEL-2; [1],98.6%
same,TGI,SK-MEL-2; five-dose,34.20 µM
